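48-hour exposure; five concentrations; linearly interpolated endpoints. TGI marks complete inhibition of growth.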
Key:
Assay in all cases: NCI tumour cell line growth inhibition, 48 h
[1] = test system: KM20L2 colon
[2] = test system: A549 NSCLC
[3] = test system: SNB-19 CNS
[4] = test system: M14 melanoma
[5] = test system: SK-MEL-28 melanoma
[6] = test system: HOP-18 NSCLC
[7] = test system: SN12C renal
[8] = test system: OVCAR-8 ovarian
[9] = test system: HT29 colon
[10] = test system: MOLT-4 leukemia
[11] = test system: HL-60(TB) leukemia
[12] = test system: LOX IMVI melanoma
[13] = test system: SF-539 CNS
[14] = test system: K-562 leukemia
[15] = test system: KM12 colon
[16] = test system: NCI-H522 lung
[17] = test system: RPMI-8226 leukemia
[18] = test system: CAKI-1 renal
[19] = test system: SK-MEL-5 melanoma
[20] = test system: 786-0 renal
[21] = test system: SF-295 CNS
[22] = test system: SNB-78 CNS
[23] = test system: U251 CNS
[24] = test system: UO-31 renal
[25] = test system: CCRF-CEM leukemia
[26] = test system: DMS 114 small cell lung
[27] = test system: OVCAR-5 ovarian
[28] = test system: NCI-H23 lung
[29] = test system: RXF-631 renal
[30] = test system: UACC-62 melanoma
[31] = test system: COLO 205 colon
[32] = test system: HOP-62 NSCLC
[33] = test system: SF-268 CNS
[34] = test system: IGROV1 ovarian
[35] = test system: HCC-2998 colon
[36] = test system: ACHN renal
[37] = test system: SR leukemia
[38] = test system: NCI-H226 lung
[39] = test system: RXF 393 renal
[40] = test system: SW-620 colon
[41] = test system: LXFL 529 NSCLC
[42] = test system: UACC-257 melanoma
[43] = test system: SNB-75 CNS
[44] = test system: NCI-H460 lung
[45] = test system: SK-MEL-2 melanoma
[46] = test system: OVCAR-3 ovarian
[47] = test system: A498 renal
[48] = test system: SK-OV-3 ovarian
[49] = test system: HCT-116 colon
[50] = test system: MALME-3M melanoma
[51] = test system: DMS 273 small cell lung
[52] = test system: DLD-1 colon
[53] = test system: EKVX NSCLC
[54] = test system: OVCAR-4 ovarian
[55] = test system: HCT-15 colon
[56] = test system: XF 498 CNS
[57] = test system: M19-MEL melanoma
[58] = test system: TK-10 renal
[59] = test system: HOP-92 NSCLC

C/C=C/C=C/C=C/C=C/C(=O)O
TGI [1]: > 100 µM
TGI [2]: > 100 µM
TGI [3]: > 100 µM
TGI [4]: > 100 µM
TGI [5]: > 100 µM
TGI [6]: > 100 µM
TGI [7]: > 100 µM
TGI [8]: > 100 µM
TGI [9]: > 100 µM
TGI [10]: > 100 µM
TGI [11]: > 100 µM
TGI [12]: > 100 µM
TGI [13]: > 100 µM
TGI [14]: > 100 µM
TGI [15]: > 100 µM
TGI [16]: > 100 µM
TGI [17]: > 100 µM
TGI [18]: > 100 µM
TGI [19]: > 100 µM
TGI [20]: > 100 µM
TGI [21]: > 100 µM
TGI [22]: > 100 µM
TGI [23]: > 100 µM
TGI [24]: > 100 µM
TGI [25]: > 100 µM
TGI [26]: > 100 µM
TGI [27]: > 100 µM
TGI [28]: > 100 µM
TGI [29]: > 100 µM
TGI [30]: > 100 µM
TGI [31]: > 100 µM
TGI [32]: > 100 µM
TGI [33]: > 100 µM
TGI [34]: > 100 µM
TGI [35]: > 100 µM
TGI [36]: > 100 µM
TGI [37]: > 100 µM
TGI [38]: > 100 µM
TGI [39]: > 100 µM
TGI [40]: > 100 µM
TGI [41]: > 100 µM
TGI [42]: > 100 µM
TGI [43]: > 100 µM
TGI [44]: > 100 µM
TGI [45]: > 100 µM
TGI [46]: > 100 µM
TGI [47]: > 100 µM
TGI [48]: > 100 µM
TGI [49]: > 100 µM
TGI [50]: > 100 µM
TGI [51]: > 100 µM
TGI [52]: > 100 µM
TGI [53]: > 100 µM
TGI [54]: > 100 µM
TGI [55]: > 100 µM

Cc1ccccc1C1=C(C(=O)Nc2ccc(Cl)c(Cl)c2)NC(=S)NC1N (configuration not stated)
TGI [1]: > 100 µM
TGI [2]: > 100 µM
TGI [3]: > 100 µM
TGI [4]: > 100 µM
TGI [5]: > 100 µM
TGI [6]: > 100 µM
TGI [7]: > 100 µM
TGI [8]: > 100 µM
TGI [9]: > 100 µM
TGI [10]: > 100 µM
TGI [56]: > 100 µM
TGI [57]: > 100 µM
TGI [58]: > 100 µM
TGI [12]: > 100 µM
TGI [13]: > 100 µM
TGI [14]: > 100 µM
TGI [15]: > 100 µM
TGI [16]: > 100 µM
TGI [17]: > 100 µM
TGI [18]: > 100 µM
TGI [19]: > 100 µM
TGI [20]: > 100 µM
TGI [22]: > 100 µM
TGI [23]: > 100 µM
TGI [24]: > 100 µM
TGI [25]: > 100 µM
TGI [26]: > 100 µM
TGI [27]: > 100 µM
TGI [28]: > 100 µM
TGI [29]: > 100 µM
TGI [30]: > 100 µM
TGI [31]: > 100 µM
TGI [33]: > 100 µM
TGI [34]: > 100 µM
TGI [36]: > 100 µM
TGI [39]: > 100 µM
TGI [40]: > 100 µM
TGI [41]: > 100 µM
TGI [42]: > 100 µM
TGI [43]: > 100 µM
TGI [44]: > 100 µM
TGI [45]: > 100 µM
TGI [46]: > 100 µM
TGI [47]: > 100 µM
TGI [48]: > 100 µM
TGI [49]: > 100 µM
TGI [50]: > 100 µM
TGI [51]: > 100 µM
TGI [52]: > 100 µM
TGI [53]: > 100 µM
TGI [54]: > 100 µM
TGI [55]: > 100 µM

COC(=O)[C@]12CCC(C)[C@H](C)[C@H]1C1=CCC3[C@@]4(C)CC[C@H](OC(C)=O)C(C)(C)C4CC[C@@]3(C)C1(C)C(O)C2 (some centres not stated)
TGI [1]: > 100 µM
TGI [2]: > 100 µM
TGI [3]: > 100 µM
TGI [4]: > 100 µM
TGI [5]: > 100 µM
TGI [6]: > 100 µM
TGI [7]: > 100 µM
TGI [8]: > 100 µM
TGI [9]: > 100 µM
TGI [10]: > 100 µM
TGI [56]: > 100 µM
TGI [57]: > 100 µM
TGI [58]: > 100 µM
TGI [12]: > 100 µM
TGI [13]: > 100 µM
TGI [14]: > 100 µM
TGI [15]: > 100 µM
TGI [16]: > 100 µM
TGI [17]: > 100 µM
TGI [18]: > 100 µM
TGI [19]: > 100 µM
TGI [20]: > 100 µM
TGI [21]: > 100 µM
TGI [22]: > 100 µM
TGI [23]: > 100 µM
TGI [24]: > 100 µM
TGI [25]: > 100 µM
TGI [26]: > 100 µM
TGI [27]: > 100 µM
TGI [28]: > 100 µM
TGI [30]: > 100 µM
TGI [31]: > 100 µM
TGI [32]: > 100 µM
TGI [33]: > 100 µM
TGI [34]: > 100 µM
TGI [35]: > 100 µM
TGI [36]: > 100 µM
TGI [37]: > 100 µM
TGI [38]: 83.1 µM
TGI [59]: > 100 µM
TGI [40]: > 100 µM
TGI [41]: > 100 µM
TGI [42]: > 100 µM
TGI [43]: > 100 µM
TGI [44]: > 100 µM
TGI [45]: > 100 µM
TGI [46]: > 100 µM
TGI [47]: > 100 µM
TGI [48]: > 100 µM
TGI [49]: > 100 µM
TGI [50]: > 100 µM
TGI [51]: > 100 µM
TGI [52]: > 100 µM
TGI [53]: > 100 µM
TGI [54]: > 100 µM
